According to US20240317816A1, “PEPTIDES FOR IMMUNOTHERAPY” (Genevive, Inc., priority 2021, published 2024):

Columns and labels:
RENCA cells = experiment: RENCA murine adenocarcinoma model, anti-tumor activity; type: in vivo, BALB/c female mice; conditions: for tumor volume: 2.5 mg/kg peritumorally daily; for survival: initial dosing
Experimental: (§1) To determine anti-tumor activity of SG-3-00802 in vivo, the RENCA murine adenocarcinoma model was used. It is a syngeneic, standardized experimental model of metastatic RCC. Briefly, BALB/c female mice were inoculated subcutaneously with RENCA cells. Established tumors were treated daily with 2.5 mg/kg SG-3-00802 peritumorally, alone or in combination with intraperitoneal administration of 10 mg/kg anti-PD-1 antibody.
Additional studies were performed to test survival and tumor volume responses to a re-challenge event. In one study, mice were allocated into dosing groups when tumors reached ˜100 mm^3. During the initial dosing study, time 0 was the first day of seven days of dosing. […] Re-implantation was completed on day 39 after dosing completion. Treated mice were tumor free for >20 days before being re-challenge. […] Tumor volume and survival was monitored as previously described. In the re-challenge experiment, time 0 is day 10 after re-challenge dosing.
as §1, with “SG-3-05021” for “SG-3-00802”, “used.” for “used. It is a syngeneic, standardized experimental model of metastatic RCC.”

[1] = tested on: (LPS)-stimulated human monocyte-derived DCs; experiment: CXCL10 induction in LPS-stimulated dendritic cells; type: cell-based; conditions: for dose-dependent response of CXCL10 induction: dose response analysis, same assay setup; for CXCL10 induction: supernatants of low dose LPS-stimulated dendritic cells, vs other peptides and negative control peptide
Experimental: Studies were performed to identify target peptides that induced CXCL10 production. Target peptides identified from human microbiomes from patients that responded to anti-PD-1 therapy were each synthesized and tested for TNF-α, CXCL10, IL6, and INF-γ induction. Fifteen peptides with high CXCL10 induction were identified for additional testing, indicated with asterisks in the figure (FIG. 1). […] Peptide sequences and characteristics can be found in Tables 4-7.
Peptides that bound to specific immune cells (1% of the screened peptides) were then evaluated for activity in cell-based assays using isolated primary human T cells, DCs, and macrophages. Immune-driven inhibition of tumor growth relies on DC-mediated recruitment of effector T cells, mainly via CXCL9 and CXCL10. […] Peptides inducing robust CXCL10 secretion (LPS)-stimulated human monocyte-derived DCs from multiple donors, with a mean induction of >2-fold of CXCL10 over OVA323 339 control peptide in DCs were selected for dose response analysis (n=36). […] To confirm cross species activity, 10 of the 15 peptides with EC50<10 μM were screened in vitro for CXCL10 induction in mouse bone marrow DCs.

[2] = tested on: Unstimulated human T cells; experiment: Transwell T cell migration towards CXCR3 ligands; type: cell-based
Experimental: T cell migration towards CXCR3 ligands in the presence of SG-3-00802 and SG-3-06683 was tested using a Transwell migration assay. Suboptimal concentrations of each ligand (CXCR3 ligands CXCL9, CXCL10, and CXCL11) were added to the bottom of the transwell with increasing doses of SG-3-00802 or SG-3-006683. An optimal concentration of ligand was used as positive control, as indicated in the graphs.
Unstimulated human T cells were resuspended in AIM V serum-free media, then were added to the top chamber of a […] polycarbonate Transwell insert and incubated with the indicated concentrations of the ligands and peptides in the bottom chamber for 2.5 hours at 37° C. T cells that migrated to the bottom chamber were collected, stained with anti-CD3 antibody, and counted using Beckman Coulter Cytoflex flow cytometer. 123count eBeads counting beads were added to each of the wells for obtaining the absolute cell counts.

Chemokine receptors = experiment: LRC-TriCEPS LC-MS/MS identification of binding partners; conditions: living cells, LRC-TriCEPS crosslinker
Experimental: SG-3-00802 binding partners were identified using the mass spectrometry-based proteomics (LC MS/MS)-based LRC-TriCEPS™ technology from DualSystems. To enrich for binding partners the ligand was coupled with the LRC-TriCEPS™ crosslinker and incubated with living cells that expressed target receptors. The enriched proteins were purified and processed for analysis by LC-MS/MS. A parallel experiment using transferrin as control ligand enabled the relative quantification of the enriched proteins. Putative binding partners of SG-3-00802 enriched over transferrin ligand are depicted in a volcano plot (FIG. 3).

[3] = molecular target: T1, human chemokine (C-X-C motif) receptor 3 (Homo sapiens, UniProt P49682); experiment: Positive allosteric modulator assay method 1 (PAM1), Tango CXCR3-bla U2OS; type: cell-based
T1 construct: TEV protease site; Gal4-VP16 transcription factor ('Ga14-VP16' [sic]); Tango cell line; host or cells: Tango GPCR-bla U2OS
T1 sequence (P49682 1-368): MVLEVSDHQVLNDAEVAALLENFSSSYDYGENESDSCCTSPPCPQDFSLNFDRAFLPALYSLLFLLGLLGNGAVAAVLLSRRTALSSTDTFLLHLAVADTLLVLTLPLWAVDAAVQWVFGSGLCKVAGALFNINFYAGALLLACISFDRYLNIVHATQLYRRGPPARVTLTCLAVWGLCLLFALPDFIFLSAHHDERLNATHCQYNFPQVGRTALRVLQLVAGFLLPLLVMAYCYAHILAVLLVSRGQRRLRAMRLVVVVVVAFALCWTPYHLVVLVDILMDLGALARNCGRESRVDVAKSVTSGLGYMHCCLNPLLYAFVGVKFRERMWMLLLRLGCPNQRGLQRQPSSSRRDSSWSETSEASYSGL
Description: To assay positive allosteric modulator activity of SG-3-00802 (SEQ ID NO: 1) and SG-3-006683 in CXCR3 cell lines, the cell line Tango™ CXCR3-bla U2OS was used in a positive allosteric modulator assay with two different methods, as described below.
Tango™ CXCR3-bla U2OS cells contain the human chemokine (C-X-C motif) receptor 3 linked to a TEV protease site and a Ga14-VP16 transcription factor stably integrated into the Tango™ GPCR-bla U2OS cell line. This parental cell line stably expresses a beta-arrestin/TEV protease fusion protein and the beta-lactamase reporter gene under the control of a UAS response element. The Tango™ CXCR3-bla U2OS cells have been functionally validated for a response to I-TAC (CXCL11).
In positive allosteric modulator assay method 1 (PAM1), cells were diluted in Assay Media to an appropriate cell density and were added to the assay plate. Peptides were added at increasing concentrations (1 nM-20 mcM) to the cells in the assay plate and incubated for 30 minutes. Ligand (CXCL9, CXCL10, or CXCL11) was added at an EC20 to all wells containing test compound. The assay plate was incubated for 16 hours at 37° C. Substrate Loading Solution was added to the assay plate and incubated for 2 hours at room temperature, in the dark. The assay plate was read on a fluorescence plate reader and the data was analyzed. PAM activity was calculated as follows:
% of PAM=((Test compound−Unstimulated)/(Stimulated−Unstimulated))×100.

[4] = in combination with 10 mg/kg i.p. anti-PD-1

| Sequence | tumor volume (RENCA cells; alone, vs PBS) | tumor volume (RENCA cells; [4]) | survival (RENCA cells; in combination with anti-PD-1) | survival (RENCA cells; peptide alone) | dose-dependent response of CXCL10 induction [1] | CXCL10 induction [1] | # of animals with complete tumor regression out of total animals per group (primary study) (RENCA cells; primary study) | T cell migration to suboptimal level of ligand ([2]; CXCL9, 2.5 hours) | T cell migration to suboptimal level of ligand ([2]; CXCL10, 2.5 hours) | T cell migration to suboptimal level of ligand ([2]; CXCL11, 2.5 hours) | binding partners enriched over transferrin ligand (Chemokine receptors) | activity of CXCR3 in presence of ligand (PAM1) ([3]; CXCL9 at EC20) | activity of CXCR3 in presence of ligand (PAM1) ([3]; CXCL10 at EC20) | activity of CXCR3 in presence of ligand (PAM1) ([3]; CXCL11 at EC20) |
| --- | --- | --- | --- | --- | --- | --- | --- | --- | --- | --- | --- | --- | --- | --- |
| LGKTDWIEKYFKVKKEKIDKMQRFLQG (peptide for immunotherapy; SG-3-05021) | decrease in tumor volume | decrease in tumor volume | survived a longer time | survived a longer time | robust dose-dependent response | high CXCL10 inducers |  |  |  |  |  |  |  |  |
| MKVRPSVKPMCEKCKIIRRKGRVMVICENPKHKQRQG [SG-3-00802] | robust decrease in tumor volume | robust decrease in tumor volume | increased survival | increased survival | robust dose-dependent response | high CXCL10 inducers | 2/12 | increased migration | increased migration | increased migration | Chemokine receptors | enhanced activity of CXCR3 | enhanced activity of CXCR3 | enhanced activity of CXCR3 |
